Earlier results in patent publication US20160015644A1, “GASTRO-RETENTIVE SUSTAINED-RELEASE ORAL DOSAGE FORM OF A BILE ACID SEQUESTRANT” (IRONWOOD PHARMACEUTICALS, INC., priority 2013, published 2016).

Tests used:
gastric proton pump [1] = target: gastric proton pump (Canis lupus familiaris, UniProt P50996); details: conscious, pentagastrin-stimulated fistula dog
gastric proton pump [2] = target: gastric proton pump (Homo sapiens, UniProt P20648)
Chain of gastric proton pump (Homo sapiens, UniProt P20648) (P20648 whole entry): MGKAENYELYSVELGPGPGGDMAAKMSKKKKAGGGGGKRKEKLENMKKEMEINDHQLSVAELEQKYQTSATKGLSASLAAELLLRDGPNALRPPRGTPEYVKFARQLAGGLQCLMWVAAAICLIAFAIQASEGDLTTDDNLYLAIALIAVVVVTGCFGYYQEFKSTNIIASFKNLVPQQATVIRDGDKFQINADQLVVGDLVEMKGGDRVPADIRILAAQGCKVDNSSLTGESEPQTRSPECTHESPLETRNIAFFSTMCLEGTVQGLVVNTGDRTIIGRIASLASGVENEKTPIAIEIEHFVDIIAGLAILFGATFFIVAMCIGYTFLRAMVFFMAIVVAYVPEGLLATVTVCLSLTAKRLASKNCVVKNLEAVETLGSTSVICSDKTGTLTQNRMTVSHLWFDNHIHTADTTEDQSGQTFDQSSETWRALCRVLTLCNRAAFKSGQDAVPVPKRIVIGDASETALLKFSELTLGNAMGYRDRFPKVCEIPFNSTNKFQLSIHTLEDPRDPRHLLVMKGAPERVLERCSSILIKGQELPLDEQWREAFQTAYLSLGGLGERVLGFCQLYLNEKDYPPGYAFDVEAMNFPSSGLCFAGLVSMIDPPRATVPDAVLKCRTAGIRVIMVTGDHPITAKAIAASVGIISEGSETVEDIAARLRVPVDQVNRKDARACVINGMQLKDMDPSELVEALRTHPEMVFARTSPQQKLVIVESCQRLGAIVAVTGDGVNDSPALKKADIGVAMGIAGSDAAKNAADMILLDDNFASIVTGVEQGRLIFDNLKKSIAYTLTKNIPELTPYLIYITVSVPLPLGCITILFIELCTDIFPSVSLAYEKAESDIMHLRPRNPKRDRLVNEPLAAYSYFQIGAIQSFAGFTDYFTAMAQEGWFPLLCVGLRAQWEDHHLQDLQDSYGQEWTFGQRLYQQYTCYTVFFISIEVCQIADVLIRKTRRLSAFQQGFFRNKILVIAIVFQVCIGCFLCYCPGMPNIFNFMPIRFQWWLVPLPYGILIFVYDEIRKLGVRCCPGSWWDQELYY
Chain of gastric proton pump (Homo sapiens, UniProt P20648) (P51164 whole entry partner): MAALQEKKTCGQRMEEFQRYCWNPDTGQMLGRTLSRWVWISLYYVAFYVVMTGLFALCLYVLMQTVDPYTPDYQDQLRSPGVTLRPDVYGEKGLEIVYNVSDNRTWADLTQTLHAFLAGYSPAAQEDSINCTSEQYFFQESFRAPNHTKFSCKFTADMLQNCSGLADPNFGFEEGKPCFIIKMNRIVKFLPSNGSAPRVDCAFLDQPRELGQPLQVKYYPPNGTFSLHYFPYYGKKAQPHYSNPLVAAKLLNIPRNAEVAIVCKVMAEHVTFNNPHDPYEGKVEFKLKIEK

Chain of gastric proton pump (Canis lupus familiaris, UniProt P50996) (P50996 whole entry): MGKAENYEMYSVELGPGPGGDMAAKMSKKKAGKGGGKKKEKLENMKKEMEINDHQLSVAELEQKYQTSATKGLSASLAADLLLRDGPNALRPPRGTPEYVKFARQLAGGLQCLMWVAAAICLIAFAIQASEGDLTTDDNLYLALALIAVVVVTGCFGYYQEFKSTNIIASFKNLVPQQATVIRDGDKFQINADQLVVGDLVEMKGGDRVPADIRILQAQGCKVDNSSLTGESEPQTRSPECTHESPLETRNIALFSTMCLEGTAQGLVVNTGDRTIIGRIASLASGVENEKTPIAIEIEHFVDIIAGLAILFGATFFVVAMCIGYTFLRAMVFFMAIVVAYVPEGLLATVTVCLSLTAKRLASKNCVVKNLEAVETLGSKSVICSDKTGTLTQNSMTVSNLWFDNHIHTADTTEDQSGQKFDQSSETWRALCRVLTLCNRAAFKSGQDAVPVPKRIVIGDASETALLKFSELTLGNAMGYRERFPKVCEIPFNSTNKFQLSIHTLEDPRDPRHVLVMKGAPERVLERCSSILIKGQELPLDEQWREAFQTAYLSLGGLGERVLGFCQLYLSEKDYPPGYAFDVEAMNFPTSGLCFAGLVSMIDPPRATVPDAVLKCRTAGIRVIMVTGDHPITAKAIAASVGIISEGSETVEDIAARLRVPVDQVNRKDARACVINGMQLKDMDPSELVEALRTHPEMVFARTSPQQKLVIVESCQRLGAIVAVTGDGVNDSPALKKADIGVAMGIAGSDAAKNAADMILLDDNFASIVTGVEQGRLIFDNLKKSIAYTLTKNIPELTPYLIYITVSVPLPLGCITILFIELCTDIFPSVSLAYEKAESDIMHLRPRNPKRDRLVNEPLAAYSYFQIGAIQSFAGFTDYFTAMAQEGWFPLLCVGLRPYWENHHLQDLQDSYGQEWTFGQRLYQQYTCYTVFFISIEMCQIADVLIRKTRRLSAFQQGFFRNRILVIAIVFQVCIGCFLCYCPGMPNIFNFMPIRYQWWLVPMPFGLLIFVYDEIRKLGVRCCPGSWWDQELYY
Chain of gastric proton pump (Canis lupus familiaris, UniProt P50996) (P33704 whole entry partner): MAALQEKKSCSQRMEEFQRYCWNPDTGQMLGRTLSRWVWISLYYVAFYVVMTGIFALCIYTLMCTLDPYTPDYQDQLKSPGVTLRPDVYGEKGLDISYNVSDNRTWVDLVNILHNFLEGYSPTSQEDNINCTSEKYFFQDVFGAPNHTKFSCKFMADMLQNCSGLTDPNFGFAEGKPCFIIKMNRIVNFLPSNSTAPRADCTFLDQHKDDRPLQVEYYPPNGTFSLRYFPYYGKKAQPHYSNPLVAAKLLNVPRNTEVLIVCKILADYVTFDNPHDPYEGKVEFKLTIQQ

## COC(=O)Nc1cccc(C)c1CNc1cccn2c(C)c(C)nc12 [BY841, (8-(2-methoxcarbonylamino-6-methyl-phenylmethylamino)-2,3-dimethyl-imida [1,2-a]-pyridine)]
Gastric proton pump [1]
  intragastric pH: ≤ 6
Gastric proton pump [1]; elevation of intragastric pH
  comparison with ranitidine and omeprazole: superior to both ranitidine and omeprazole
Gastric proton pump [2]; 50 mg or 100 mg twice daily, Day one of treatment
  effectiveness in comparison with the standard dose of omeprazole: markedly more effective
Gastric proton pump [2]; 50 mg or 100 mg twice daily, following repeated daily administration
  potency in comparison with the standard dose of omeprazole: at least as potent as omeprazole
Gastric proton pump [2]; single 50 mg oral dose
  intragastric pH: about 6
